± gives the expanded uncertainty stated by the source.
Assays:
[1] = xn = mol fraction of the nth substance listed; conditions: 101 kPa, Liquid; for mass density: Pycnometric method; for speed of sound: Pulse-echo method
[2] = molar heat capacity at constant pressure; conditions: 101.33 kPa, Liquid, Small sample (50 mg) DSC
[3] = 101 kPa, Liquid; for mass density: Pycnometric method; for speed of sound: Pulse-echo method
[4] = refractive index (Na D-line) (dimensionless); conditions: 298.15 K; 101.33 kPa; Liquid; Standard Abbe refractometry

CCC(O)CO (stereo not drawn) [1,2-butanediol] + CCCCO
[1]
Conditions | mass density, 293.15 K [kg/m3] | mass density, 298.15 K [kg/m3] | mass density, 303.15 K [kg/m3] | mass density, 308.15 K [kg/m3] | speed of sound, 298.15 K [m/s]
x1 = 0.05027 | 819.25 ± 0.3 | 815.37 ± 0.31 | 811.5 ± 0.32 | 807.63 ± 0.33 | 1248.1 ± 1.4
x1 = 0.1001 | 828.73 ± 0.31 | 824.84 ± 0.32 | 820.98 ± 0.33 | 817.06 ± 0.34 | 1256.3 ± 1.4
x1 = 0.1501 | 838.28 ± 0.32 | 834.4 ± 0.33 | 830.49 ± 0.34 | 826.61 ± 0.35 | 1264.1 ± 1.4
x1 = 0.3 | 867.03 ± 0.35 | 863.1 ± 0.36 | 859.21 ± 0.37 | 855.24 ± 0.38 | 1289.6 ± 1.4
x1 = 0.4004 | 886.32 ± 0.37 | 882.4 ± 0.38 | 878.47 ± 0.39 | 874.54 ± 0.41 | 1307.8 ± 1.4
x1 = 0.4994 | 905.4 ± 0.4 | 901.47 ± 0.41 | 897.58 ± 0.42 | 893.65 ± 0.43 | 1327.2 ± 1.5
x1 = 0.6002 | 924.85 ± 0.42 | 920.95 ± 0.44 | 917.07 ± 0.45 | 913.17 ± 0.46 | 1348.3 ± 1.5
x1 = 0.7001 | 944.16 ± 0.46 | 940.28 ± 0.47 | 936.42 ± 0.48 | 932.51 ± 0.49 | 1371.1 ± 1.5
x1 = 0.85 | 973.21 ± 0.51 | 969.42 ± 0.52 | 965.57 ± 0.53 | 961.69 ± 0.54 | 1408.2 ± 1.6
x1 = 0.8998 | 982.93 ± 0.53 | 979.12 ± 0.54 | 975.25 ± 0.55 | 971.41 ± 0.56 | 1421.8 ± 1.6
x1 = 0.9498 | 992.62 ± 0.55 | 988.87 ± 0.56 | 985.02 ± 0.57 | 981.19 ± 0.58 | 1435.5 ± 1.6
x1 = 1 | 1002.32 ± 0.57 | 998.59 ± 0.58 | 994.78 ± 0.59 | 990.97 ± 0.6 | 1449.9 ± 1.6

CCCCO [butan-1-ol]
Conditions | mass density, [3] [kg/m3] | molar heat capacity at constant pressure, [2] [J/K/mol] | speed of sound, [3] [m/s]
283.15 K | – | 167.32 ± 7.1 | –
288.15 K | – | 170.35 ± 7.2 | –
293.15 K | 809.65 ± 0.29 | 173.54 ± 7.4 | –
298.15 K | 805.81 ± 0.3 | 176.9 ± 7.5 | 1240.2 ± 1.4
303.15 K | 801.98 ± 0.31 | 180.41 ± 7.7 | –
308.15 K | 798.13 ± 0.32 | 184.09 ± 7.8 | –
313.15 K | – | 187.93 ± 8 | –
318.15 K | – | 191.93 ± 8.1 | –

Conditions | refractive index
[4] | 1.3972 ± 0.0008

CCC(O)CO (stereo not drawn) [1,2-butanediol]
Conditions | mass density, [3] [kg/m3] | molar heat capacity at constant pressure, [2] [J/K/mol] | speed of sound, [3] [m/s]
283.15 K | – | 222.86 ± 9.5 | –
288.15 K | – | 225.62 ± 9.6 | –
293.15 K | 1002.32 ± 0.57 | 228.35 ± 9.7 | –
298.15 K | 998.59 ± 0.58 | 231.06 ± 9.8 | 1449.9 ± 1.6
303.15 K | 994.78 ± 0.59 | 233.74 ± 9.9 | –
308.15 K | 990.97 ± 0.6 | 236.4 ± 10 | –
313.15 K | – | 239.05 ± 10 | –
318.15 K | – | 241.66 ± 10 | –

Conditions | refractive index
[4] | 1.4364 ± 0.0008

CCCCO [butan-1-ol] + CCC(O)CO
[1], x2 = 0
Conditions | mass density [kg/m3] | speed of sound [m/s]
293.15 K | 809.65 ± 0.29 | –
298.15 K | 805.81 ± 0.3 | 1240.2 ± 1.4
303.15 K | 801.98 ± 0.31 | –
308.15 K | 798.13 ± 0.32 | –

— the NIST ThermoML archive (doi:10.1016/j.jct.2013.08.033)
